Source: patent publication US11926626B2, “Heterocyclic GLP-1 agonists” (Gasherbrum Bio, Inc., priority 2020, dated 2024)

Biological target: GLP-1 Receptor (Homo sapiens, UniProt P43220)
Assay: GLP-1R agonist cAMP stimulation assay (HEK293/GLP1R/CRE-Luc cells, HTRF cAMP)
Type: cell-based
Conditions: HEK293/CRE-Luc cells stably expressing GLP-1 Receptor; 30 min, 37° C.

Sequence of GLP-1 Receptor (P43220 24-463): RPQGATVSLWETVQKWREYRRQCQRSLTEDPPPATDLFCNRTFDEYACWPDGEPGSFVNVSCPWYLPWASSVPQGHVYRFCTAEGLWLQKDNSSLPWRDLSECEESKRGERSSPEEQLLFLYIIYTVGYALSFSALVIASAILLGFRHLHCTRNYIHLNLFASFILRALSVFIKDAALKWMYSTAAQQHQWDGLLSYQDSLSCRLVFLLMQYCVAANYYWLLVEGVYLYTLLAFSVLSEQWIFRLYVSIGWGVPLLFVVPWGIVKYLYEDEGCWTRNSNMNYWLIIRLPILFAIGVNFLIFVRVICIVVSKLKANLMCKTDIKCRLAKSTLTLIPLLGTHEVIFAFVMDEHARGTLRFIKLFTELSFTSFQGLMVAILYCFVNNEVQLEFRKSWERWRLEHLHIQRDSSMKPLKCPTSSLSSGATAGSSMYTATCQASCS

| SMILES | GLP1R cAMP Stimulation DR: pEC50 |
| --- | --- |
| COC(C)Cn1c(CN2CCC(Oc3ccnc(Cc4ccc(Cl)cc4)n3)CC2)nc2ccc(C(=O)O)nc21 (stereo not drawn) [Compound 195, 2-((4-((2-(4-chlorobenzyl)pyrimidin-4-yl)oxy)piperidin-1-yl)methyl)-3-(2-methoxypropyl)-3H-imidazo[4,5-b]pyridine-5-carboxylic acid] | 9.2 |
| O=C(O)c1ccc2nc(CN3CCC(Oc4ccnc(Cc5ccc(Cl)cc5)n4)CC3)n(C[C@H]3CCOC3)c2n1 [Compound 196a, (R)-2-((4-((2-(4-chlorobenzyl)pyrimidin-4-yl)oxy)piperidin-1-yl)methyl)-3-((tetrahydrofuran-3-yl)methyl)-3H-imidazo[4,5-b]pyridine-5-carboxylic acid] | 8.9 |
| O=C(O)c1ccc2nc(CN3CCC(Oc4nc(Cc5ccc(Cl)cc5)ncc4F)CC3)n(C[C@H]3CCOC3)c2n1 [Compound 197a, (R)-2-((4-((2-(4-chlorobenzyl)-5-fluoropyrimidin-4-yl)oxy)piperidin-1-yl)methyl)-3-((tetrahydrofuran-3-yl)methyl)-3H-imidazo[4,5-b]pyridine-5-carboxylic acid] | 8.6 |
| O=c1[nH]c(-c2ccc3nc(CN4CCC(Oc5ccnc(Cc6ccc(Cl)cc6)n5)CC4)n(C[C@@H]4CCO4)c3n2)no1 [Compound 198a, (S)-3-(2-((4-((2-(4-chlorobenzyl)pyrimidin-4-yl)oxy)piperidin-1-yl)methyl)-3-(oxetan-2-ylmethyl)-3H-imidazo[4,5-b]pyridin-5-yl)-1,2,4-oxadiazol-5(4H)-one] | 9.2 |

The next lines start with the values.

| GLP1R cAMP Stimulation DR: pEC50 | SMILES |
| --- | --- |
| 7.1 | NC(=O)c1ccc2nc(CN3CCC(Oc4ccnc(Cc5ccc(Cl)cc5)n4)CC3)n(C[C@@H]3CCO3)c2n1 [Compound 200a, (S)-2-((4-((2-(4-chlorobenzyl)pyrimidin-4-yl)oxy)piperidin-1-yl)methyl)-3-(oxetan-2-ylmethyl)-3H-imidazo[4,5-b]pyridine-5-carboxamide] |
| 6.4 | O=C(O)c1ccc2nc(CN3CC4CC(Oc5ccnc(Cc6ccc(Cl)cc6)n5)CC4C3)n(C[C@@H]3CCO3)c2n1 (stereo partly drawn) [Compound 201a, 2-{[5-({2-[(4-chlorophenyl)methyl]pyrimidin-4-yl}oxy)-octahydrocyclopenta[c]pyrrol-2-yl]methyl}-3-{[(2S)-oxetan-2-yl]methyl}-3H-imidazo[4,5-b]pyridine-5-carboxylic acid] |
